# Experimental data reported in patent US10588844B2, “Process for preparing tripeptide containing oleanolic acid and its therapeutic applications thereof” (priority 2017, dated 2020).
# What was measured:
# [1] = system: Collagenase Type IV from Clostridium histolyticum; assay: Anti collagenase activity (EnzChek DQ gelatin fluorescence assay); type: biochemical
# From the text: Collagenase is one of the matrix metalloprotease, which digest collagen and other components of the extra cellular matrix (ECM). The ECM serves as a scaffold to stabilize the skin structure, and also helps in proliferation and metabolic functions of the skin cells. Loss of collagen leads to wrinkles and sagging of skin. The principle of the assay of collagenase inhibition is based on the fact that the substrate DQ™ gelatine is conjugated to fluorecein—a fluorescent compound. In DQ™ gelatine, fluorescence is quenched. DQ™ gelatine is efficiently digested by collagenases to yield a fluorescent compound which can be measured. The increase in fluorescence is proportional to enzyme activity. In the presence of an anti collagenase compound the amount of fluorescence will be decreased for a fixed concentration of enzyme and substrate.
# • Equipment-BMG FLUOstar Optima (fluorescent Microplate reader) • Reagents: Phosphate buffer (pH 7.4) • Collagenase Enzyme assay kit (Enzchek® collagenase, gelatinase assay kit, Invitrogen, USA) • Microtitre plates—96 well microtitre plates (black)—Corning, USA
# The assay was performed in a 96 well black microtitre plate. […] 100 μl of the Collagenase enzyme solution (final concentration-0.4 U/ml) was added and the fluorescence intensity was measured at Em: 485 nm and Ex: 520 nm after 30 minutes. Enzyme activity of control (buffer) was recorded. […]
# [2] = target: T1, Elastase enzyme from pig pancreas (Sus scrofa, UniProt P00772); assay: Anti elastase activity (EnzChek DQ elastin fluorescence assay); type: biochemical
# T1 construct: purchased; host or cells: pig pancreas
# T1 sequence (P00772 27-266): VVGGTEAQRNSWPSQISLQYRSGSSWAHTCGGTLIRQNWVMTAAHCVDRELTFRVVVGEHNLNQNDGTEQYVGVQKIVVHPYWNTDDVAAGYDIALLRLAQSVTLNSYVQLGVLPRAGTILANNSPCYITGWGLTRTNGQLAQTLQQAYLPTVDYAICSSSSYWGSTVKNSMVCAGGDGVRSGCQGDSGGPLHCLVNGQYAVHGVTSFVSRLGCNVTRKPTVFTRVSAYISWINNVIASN
# From the text: Elastase is one of the […], which digest elastin and other components of the extra cellular matrix and is important both for normal skin development. If this enzyme is not regulated by inhibitor proteins results in wrinkling of skin, premature ageing and carcinogenesis. The Anti-Elastase assay by Enz Chek elastase assay kit determines the elastase inhibitory activity of the products. The assays were done using the EnzChek elastase assay kit. The substrate is DQ elastin soluble bovine neck ligament. DQ elastin is labelled with BODIPY FL dye. The non-fluorescent substrate can be digested by elastase to yield highly fluorescent fragments and in the presence of inhibitor, the fluorescence intensity is quenched. The fluorescence intensity was measured in a microplate reader ([…].)
# The assay was performed in a 96 well black microtitre plate. […] 100 μl of the Elastase enzyme solution (final concentration-0.1 U/ml) was added and the fluorescence intensity was measured at Em: 485 nm and Ex: 520 nm after 30 minutes. Enzyme activity of control (buffer) was recorded.
# [formula] • B—Fluorescence in the presence of enzyme • BC—Fluorescence in the absence of enzyme activity • T—Fluorescence of enzyme activity in the presence of inhibitor • C—Fluorescence of the inhibitor alone Result
# Human dermal fibroblasts [3] = assay: Proliferation of fibroblasts (SRB assay); type: cell-based; conditions: concentration of 12.5% (so in the source), 72 hours
# Method: Human dermal fribroblasts were seeded at a density of 5×10^3 cells/well in DMEM 10% FBS and antibiotics in 96 well plate and allowed to form a monolayer in a humidified incubator at 37° C. and 5% CO2 atmosphere for 24 hours. Cells were treated with different concentration of the extract for 72 hours to assess the cytotoxicity. The viability of fibroblasts were determined by SRB assay (Nature protocols, 2006, 1, 3, 2112-16). Cells in DMEM with 0.1% DMSO was used as […] while media without cells were used as negative control
# collagen in fibroblasts = assay: Collagen production / collagen staining in fibroblasts; type: cell-based, human
# [4] = system: TGF-β secretion by fibroblasts; assay: TGF-β concentration in fibroblast culture supernatant; type: cell-based, human
# [5] = system: Human keratinocytes (HaCAT); assay: Protection against UVB induced apoptosis, DNA damage and death (annexin-FITC/PI flow cytometry); type: cell-based; conditions: UVB exposed HaCAT
# Method: Cells: Human keratinocytes (HaCAT)—cells were maintained as a monolayer culture in Dulbeccos modified minimal essential medium (DMEM) Life technologies, CA, USA) supplemented with 10% (v/v) heat-inactivated foetal bovine serum (FBS; GIBCO/Invitrogen, Carlsbad, Calif.), 100 units/mL penicillin and 100 μg/mL streptomycin (Life technologies) at 37° C. in a humidified 5% CO2 incubator.
# Reagents: Dulbeccos modified minimal essential medium (DMEM), Fetal bovine serum (FBS), Annexin-FITC, Propidium Iodide-Apoptosis detection kit, Biovision, USA.
# Instrument: Flow Cytometry (BD-FACS-Celesta).
# Cells (3×10^5) were pre-treated with different concentrations of test sample for one hour and exposed to UVB. Cells were exposed to UVB rays for 10 min and incubated for 16 hours in DMEM with 2% serum. Cells were labelled with annexin-FITC and propidium iodide […] for 10 minutes in dark and analyzed using flow cytometer (BD FACS-Celesta).
# [6] = system: Human keratinocytes (HaCAT); assay: ROS scavenging in keratinocytes, UV induced oxidative stress (DCFH-DA); type: cell-based; conditions: 6.25 μg/ml
# Method: (§1) Cells: Human keratinocytes (HaCAT)—cells were maintained in fibroblast media (Gibco) at 37° C. in a humidified 5% CO2 incubator.
# Reagents: Keratinocyte media (Gibco) DCFH-DA Instrument: FluoStar Optima microplate reader.
# (§2) Reactive oxygen species include a number of molecules that damage DNA and RNA and oxidize proteins and lipids (lipid peroxydation). These reactive molecules contain an oxygen atom/molecule and include H2O2 (hydrogen peroxide), NO (nitric oxide), O2^− ([…]), peroxynitrite (ONOO^−), hydrochlorous acid (HOCl), and hydroxyl radical (OH). 5-(and 6)-chloromethyl-20, 70-dichlorohydrofluorescein diacetate (CM-H2DCFDA) freely permeates the plasma membrane and is hydrolyzed in the cytosol to form the DCFH carboxylate anion. Oxidation results in the formation of fluorescent DCF, which is maximally excited at 495 nm and emits at 520 nm.
# (§3) Keratinocytes were seeded at 50,000 cells per well in 96 well black plates and allowed to grow as a monolayer for 24 hours. Cells were pre-treated with different concentration of Oleanoyl-KVK for one hour. The plate was exposed to UVA radiation for 1 hour. Freshly prepared DCFH-DA reagent was added to all the wells (2 ug/well). The plate was incubated at 37° C. for 30 minutes. Fluorescence was recorded at 485:520, Ex: Em wavelength in FluoStar Optima microplate reader.
# [7] = system: Human keratinocytes (HaCAT); assay: ROS scavenging in keratinocytes, heavy metal induced oxidative stress; type: cell-based; conditions: concentration of 12.5% (so in the source)
# Method: as §1, §2
# as §3, with “The plate was exposed to UVA radiation for 1 hour.” left out
# Human dermal fibroblasts [8] = assay: Gene expression analysis in dermal fibroblasts (quantitative RT-PCR); type: cell-based; conditions: 6.25 μg/ml, 24 hours
# Method: (§4) Human dermal fibroblasts and keratinocytes were cultured in 6 well microtiter plates in the presence of 6.25 μg/ml oleanoyl KVK for 24 hours. Untreated cells were used as control. At the end of incubation time, the cells were lysed and RNA was extracted. […] Extracted RNA was treated with DNAse I to remove any contaminating DNA and again extracted using phenol: chloroform: isoamyl alcohol extraction ([…]). Quality of RNA was determined by checking the absorbance at 260/280 nm using a Nanodrop (Thermo). 2 μg of total RNA was taken for cDNA synthesis using Super Script III First-Strand Synthesis System (Life Technologies). Quantitative RT-PCR analysis was performed to determine the expression of brown fat specific genes in Roche Light cycler 96 using SYBR Green master mix (Thermo Scientific). β actin was used as a house keeping gene. The relative RNA abundance of the genes was normalized to the housekeeping β actin gene and expressed as delta delta CT (equivalent to fold change transformed by Log2).
# keratinocytes = assay: Gene expression analysis in keratinocytes (quantitative RT-PCR); type: cell-based, human; conditions: 6.25 μg/ml, 24 hours
# Method: as §4
# [9] = system: keratinocytes exposed to oxidative stress; assay: Gene expression in keratinocytes exposed to oxidative stress (quantitative RT-PCR); type: cell-based, human; conditions: cells exposed to oxidative stress
# Method: as §4
# [10] = system: TNF-α secretion by THP-1 human monocytes; assay: Anti inflammatory activity: LPS induced TNF-α secretion in THP-1 cells (ELISA); type: cell-based; conditions: for % Inhibition (TNF-α): LPS stimulated THP-1, 24 hour
# Method: Anti inflammatory activity was examined using human monocyte/macrophage cell line THP-1. Monocytes respond to lipo-polysaccharides (LPS) by secreting pro-inflammatory cytokines. Tumour necrosis factor (TNF-α) is one of the principle cytokine which triggers a cascade of inflammatory reactions. The concentration of TNF-α was measured using an Enzyme linked Immunosorbent assay (ELISA). Reduction in TNF-α concentration indicates an anti inflammatory activity of the compound.
# Cells: THP1-human monocytes purchased from American Type Culture Collection (ATCC, Manassas, Va.) and maintained as a monolayer culture in Rosewell park memorial institute Medium (RPMI Life technologies, CA, USA) supplemented with 10% (v/v) heat-inactivated foetal bovine serum (FBS; GIBCO/Invitrogen, Carlsbad, Calif.), 100 units/mL penicillin and 100 μg/mL streptomycin (Life technologies) at 37° C. in a humidified 5% CO2 incubator.
# ELISA kit: Human TNF ELISA kit, Krishgen Biosciences, USA
# 1×10^5 THP-1 cells were stimulated with 100 ng with lipopolysacharide (LPS, 0.1 μg/mL) to induce TNF-α secretion. Cells were pre treated with different concentrations of oleanoyl KVK before LPS treatment. The cell supernatants were collected 24 hour after treatment and secreted TNF-α as estimated by cytokine ELISA as described by the manufacturer. Un-stimulated cells were used as negative control. The limit of detection was <1 pg/mL.
# THP-1 cells = assay: Cell viability of THP-1 cells in the anti inflammatory assay; type: cell-based, human
compound,measurement,setting,value
"CC(C)[C@H](NC(=O)[C@H](CCCCN)NC(=O)[C@]12CCC(C)(C)C[C@H]1C1=CC[C@@H]3[C@@]4(C)CC[C@H](O)C(C)(C)[C@@H]4CC[C@@]3(C)[C@]1(C)CC2)C(=O)N[C@@H](CCCCN)C(=O)O [Oleanoyl-KVK, Lysine-Valine-Lysine (KVK) conjugated to Oleanolic acid]",inhibition of collagenase enzyme activity,[1]; 250 μg/ml,100%
same,IC50 anti collagenase activity,"[1]; DQ gelatin substrate, 30 minutes",48.8 µg/mL
same,inhibition at 250 µg/mL,[2]; 250 μg/ml,98%
same,IC50,"[2]; DQ elastin substrate, 30 minutes, read-out: IC50 anti elastase activity (printed: anti collagenase activity) (converted)",77 µM
same,increase in proliferation of fibroblasts,Human dermal fibroblasts [3],42.2%
same,increase in collagen staining in fibroblasts,collagen in fibroblasts,22.8%
same,TGF-β secretion by fibroblasts,[4],dose dependent increase
same,percent protection against UV induced DNA damage and death,[5]; 12.5 μg/ml,47.9%
same,reduction in late apoptosis,[5],concentration dependent reduction in late apoptosis
same,increase in live cells,[5]; 12.5 μg/ml,highest increase in live cells
same,reduction in early apoptosis,[5]; maximum at 12.5 μg/ml,concentration dependent reduction in early apoptosis
same,"ROS scavenging activity, UV induced stress",[6],17.1%
same,"ROS scavenging, induced by heavy metals",[7],20.4%
same,expression level of TGF-β,Human dermal fibroblasts [8],increased
same,expression level of collagen,Human dermal fibroblasts [8],increased
same,expression level of hyaluronan synthase,Human dermal fibroblasts [8],increased
same,"gene expression in keratinocytes (FIG. 10: collagen, Elastin, TGF-β, hyaluronan synthase, epidermal growth factor)",keratinocytes,increased
same,expression level of matrix metalloprotease 9,[9],down regulated
same,expression level of tumor necrosis factor α,[9],down regulated
same,% Inhibition (TNF-α),[10]; 1.56 μg/ml,12.14%
same,% Inhibition (TNF-α),[10]; 3.12 μg/ml,12.53%
same,% Inhibition (TNF-α),[10]; 6.25 μg/ml,31.01%
same,% Inhibition (TNF-α),[10]; 12.5 μg/ml,71.03%
same,IC50 anti inflammatory activity,"[10]; LPS stimulated THP-1, TNF-α ELISA",9.09 µg/mL
same,Cell viability,THP-1 cells; 1.56 μg/ml,100%
same,Cell viability,THP-1 cells; 3.12 μg/ml,100%
same,Cell viability,THP-1 cells; 6.25 μg/ml,100%
same,Cell viability,THP-1 cells; 12.5 μg/ml,100%
